EC50 data for 24 compounds are collected here from patent publication US8895580B2, “Quinolinone-pyrazolone M1 receptor positive allosteric modulators” (Merck Sharp & Dohme Corp., priority 2009, dated 2014).

Each structure is given as a SMILES string.

For this experiment, the target named is T1, acetylcholine muscarinic M1 receptor (CHOnfat/hM1 cells) (Homo sapiens, UniProt P11229).
T1 construct: expressed in transfected cells; host or cells: CHOnfat cells (CHOnfat/hM1; Geneticin-selected)
T1 sequence (P11229 1-460): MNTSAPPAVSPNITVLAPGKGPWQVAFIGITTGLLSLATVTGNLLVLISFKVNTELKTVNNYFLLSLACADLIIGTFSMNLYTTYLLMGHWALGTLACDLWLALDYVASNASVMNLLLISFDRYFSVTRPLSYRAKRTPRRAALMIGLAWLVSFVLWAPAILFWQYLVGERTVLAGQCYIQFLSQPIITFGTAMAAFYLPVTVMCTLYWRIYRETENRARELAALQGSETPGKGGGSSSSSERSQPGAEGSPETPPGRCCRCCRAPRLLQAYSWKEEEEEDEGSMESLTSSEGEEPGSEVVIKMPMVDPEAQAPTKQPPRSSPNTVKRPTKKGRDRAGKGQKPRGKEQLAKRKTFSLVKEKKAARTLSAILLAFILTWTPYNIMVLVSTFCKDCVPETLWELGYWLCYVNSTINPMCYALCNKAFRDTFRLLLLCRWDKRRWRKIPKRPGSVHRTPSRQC
Description: muscarinic M1 FLIPR intracellular calcium assay (positive allosteric modulation). The following applies: FLIPR Ca2+, 4 min preincubation, then EC20 acetylcholine (3 nM final), read-out: IP Value (inflection point). The format is cell-based. The method, then: The assay studies the effect of one or several concentrations of test compounds on basal or acetylcholine-stimulated Ca^2+ levels using FLIPR.
Compounds are prepared and subjected to a preincubation period of 4 min. Thereafter, a single EC20 concentration of acetylcholine is added to each well (3 nM final). The intracellular Ca^2+ level of each sample is measured and compared to an acetylcholine control to determine any modulatory activity.
Cells: CHOnfat/hM1, hM2, hM3 or hM4 cells are plated 24 hr before the assay at a density of 18,000 cells/well (100 μL) in a 384 well plate. CHOnfat/hM1 and CHOnfat/hM3 Growth Medium: 90% DMEM (Hi Glucose); 10% HI FBS; 2 mM L-glutamine; 0.1 mM NEAA; Pen-Strep; and 1 mg/ml Geneticin, are added. For M2Gqi5CHOnfat and M4Gqi5CHOnfat cells, an additional 600 ug/ml hygromycin is added.
Equipment: 384 well plate, 1204 addition plate; 96-well Whatman 2 ml Uniplate Incubator, 37° C., 5% CO2; Skatron EMBLA-384 Plate Washer; Multimek Pipetting System; Genesis Freedom 200 System; Mosquito System; Temo Nanoliter Pipetting System; and FLIPR^384 Fluorometric Imaging Plate Reader System are used.
Buffers. Assay Buffer: Hanks Balanced Salt Solution, with 20 mM Hepes, 2.5 mM Probenecid (Sigma P-8761) first dissolved in 1 N NaOH, 1% Bovine Serum Albumin (Sigma A-9647). Dye Loading Buffer: Assay Buffer plus 1% Fetal Bovine Serum and Fluo-4AM/Pluronic Acid Mixture. 2 mM Fluo-4AM ester stock in DMSO (Molecular Probes F-14202) Concentration of 2 μM in buffer for a final concentration of 1 μM in Assay. 20% Pluronic Acid Solution stock, with concentration of 0.04% in Buffer, 0.02% in Assay.
65 μL of 2 mM Fluo-4AM are mixed with 130 μL of 20% Pluronic Acid. The resulting solution and 650 μL FBS is added to the assay buffer for a total volume of 65 mL. Positive Controls: 4-Br-A23187: 10 mM in DMSO; final concentration 10 μM. Acetylcholine: 10 mM in water, working stock at both 20 μM and 30 μM in assay buffer, final concentration of 10 μM. This is used to check the maximum stimulation of the CHOK1/hM1 cells, 20 μM (2×) acetylcholine is added in the preincubation part of the assay, and the 30 μM (3×) stock is added in the second part. (EC20)Acetylcholine: 10 mM in water, working stock of 9 nM (3×), and final concentration in assay is 3 nM. This is used after the preincubation with test compounds. Addition of the EC20 Acetylcholine to each well with a test compound will ascertain any modulator activity. 24 wells contain 3 nM Acetylcholine alone as a control.
Determining Activity of Putative Compounds:
Screening Plate Compounds are titrated in 96-well plates (columns 2-11), 100% DMSO, started at a concentration of 15 mM (150× stock concentration), and 3-fold serial dilutions using Genesis Freedom200 System. Four 96-well plates are combined into a 384-well plate using Mosquito Nanoliter Pipetting System by transferring 1 μl of serial diluted compounds to each well, and 1 mM acetylcholine (100× stock concentration) were added as a control. Using Temo, 49 μl assay buffer is added to each well of the 384-well plate right before assay.
In a 96-well Whatman 2 ml Uniplate, 9 nM Acetylcholine (3×) is pipetted into wells corresponding to the screening compounds, and into control wells. The 30 μM acetylcholine control (3×) is added into control wells, and the 3× agonist plate is transferred into a 384 well plate.
Cells are washed three times with 100 μl, of buffer, leaving 30 μl of buffer in each well. Using Multimek, 30 μL of Dye Loading Buffer is added into each well and incubated at 37° C., 5% CO2 for up to one hr.
After 60 min, the cells are washed three times with 100 μl of buffer, leaving 30 μl, of buffer in each well. The cell plate, screening plate, and agonist addition plates are placed on the platform in the FLIPR and the door closed. A signal test to check background fluorescence and basal fluorescence signal is performed. Laser intensity is adjusted if necessary. […]
In general terms: A change in cytosolic calcium serves as a functional read-out for many receptors and channels.

As for `O=c1c2cn(Cc3ccc(-n4cccn4)cc3)c3ccccc3c-2nn1[C@H]1CCCC[C@@H]1O` (racemic) [Example 508, (±)-2-(trans-2-Hydroxycyclohexyl)-5-{[4-(1H-pyrazol-1-yl)phenyl]methyl}-2,5-dihydro-3H-pyrazolo[4,3-c]quinolin-3-one], the EC50 turned out to be 33 nM. With `O=C1CCCCC1n1nc2c3ccccc3n(Cc3ccc(-n4cccn4)cc3)cc-2c1=O` (racemic) [Example 720, (±)-2-(2-oxocyclohexyl)-5-{[4-(1H-pyrazol-1-yl)phenyl]methyl}-2,5-dihydro-3H-pyrazolo[4,3-c]quinolin-3-one], the EC50 is 135 nM. To `Cc1ccnc(N[C@H]2CCCC[C@@H]2n2cc3c(=O)n(-c4nccc(C)c4F)nc-3c3c(NCc4ccc(-n5cccn5)cc4)c(F)ccc32)c1F` (racemic) [Example 733, (±)-8-Fluoro-2-(3-fluoro-4-methylpyridin-2-yl)-5-trans-2-[(3-fluoro-4-methylpyridin-2-yl)amino]cyclohexy}-9-({[4-(1H-pyrazol-1-yl)phenyl]methyl}amino)-2,5-dihydro-3H-pyrazolo[4,3-c]quinolin-3-one] belongs 653 nM; to `COc1ccc(Cn2cc3c(=O)n(-c4ccccc4F)nc-3c3ccccc32)cc1` [Example 1, 2-(2-Fluorophenyl)-5-{[4-(methoxy)phenyl]methyl}-2,5-dihydro-3H-pyrazolo[4,3-c]quinolin-3-one], 415 nM. Consider `O=c1c2cn(Cc3ccc(-c4ccccc4)cc3)c3ccccc3c-2nn1-c1ccccc1F` [Example 8, 2-(2-Fluorophenyl)-5-(biphenyl-4-ylmethyl)-2,5-dihydro-3H-pyrazolo[4,3-c]quinolin-3-one], for which the EC50 stood at 1990 nM. `Cn1cnc(-n2nc3c4c(F)ccc(F)c4n(Cc4ccc(-n5cccn5)cc4)cc-3c2=O)c1` [Example 24, 6,9-Difluoro-2-(1-methyl-1H-imidazol-4-yl)-5-{[4-(1H-pyrazol-1-yl)phenyl]methyl}-2,5-dihydro-3H-pyrazolo[4,3-c]quinolin-3-one]: the EC50 was found to be 103 nM. For the compound `O=c1c2cn(Cc3ccc(-n4cccn4)cc3)c3c(F)ccc(F)c3c-2nn1-c1ccccc1CO` [Example 55, 6,9-Difluoro-2-[2-(hydroxymethyl)phenyl]-5-{[4-(1H-pyrazol-1-yl)phenyl]methyl}-2,5-dihydro-3H-pyrazolo[4,3-c]quinolin-3-one], the EC50 turned out to be 204 nM.

Take `CCNCc1ccccc1-n1nc2c3c(F)ccc(F)c3n(Cc3ccc(-n4cccn4)cc3)cc-2c1=O` [Example 56]: the EC50 was 123 nM. As for `O=c1c2cn(Cc3ccc(-n4cccn4)cc3)c3c(F)ccc(F)c3c-2nn1-c1ncccc1C(F)(F)F` [Example 77, 6,9-Difluoro-5-{[4-(1H-pyrazol-1-yl)phenyl]methyl}-2-[3-(trifluoromethyl)pyridin-2-yl]-2,5-dihydro-3H-pyrazolo[4,3-c]quinolin-3 one], the EC50 is 65 nM. With `O=c1c2cn(Cc3ccc(-n4cncn4)cc3F)c3c(F)ccc(F)c3c-2nn1-c1ccccc1F` [Example 84, 6,9-Difluoro-2-(2-fluorophenyl)-5-{[2-fluoro-4-(1H-1,2,4-triazol-1-yl)phenyl]methyl}-2,5-dihydro-3H-pyrazolo[4,3-c]quinolin-3-one], the EC50 is 348 nM.

As for `O=c1c2cn(Cc3ccc(-n4cccn4)cc3)c3ccccc3c-2nn1-c1ccccc1F` [Example 107, 2-Fluorophenyl-5-{[4-(1H-pyrazol-1-yl)phenyl]methyl}-2,5-dihydro-3H-pyrazolo[4,3-c]quinolin-3-one], the EC50 came out at 59 nM. As for `O=c1c2cn(Cc3ccc4[nH]ccc4c3)c3ccccc3c-2nn1-c1ccccc1F` [Example 109, 2-(2-Fluorophenyl)-5-(1H-indol-5-ylmethyl)-2,5-dihydro-3H-pyrazolo[4,3-c]quinolin-3-one], the EC50 is 90 nM.

`O=c1c2cn(Cc3nccc4ccccc34)c3ccccc3c-2nn1-c1ccccc1F` [Example 128]: the EC50 was 1290 nM. Turning to `O=c1c2cn(Cc3ccc(-c4ccc5[nH]ccc5c4)cc3F)c3ccccc3c-2nn1-c1ccccc1F` [Example 187, 5{[2-Fluoro-4-(1H-indol-5-yl)phenyl]methyl}-2-(2-fluorophenyl)-2,5-dihydro-3H-pyrazolo[4,3-c]quinolin-3-one], the EC50 amounted to 1640 nM.

Turning to `CC(C)Cn1cc(-c2ccc(Cn3cc4c(=O)n(-c5ccccc5F)nc-4c4ccccc43)cn2)cn1` [Example 242], the EC50 was determined as 159 nM. `Cc1ccc(-c2ccc(Cn3cc4c(=O)n(-c5ccccc5F)nc-4c4ccccc43)nc2)cn1` [Example 258]: the EC50 is 246 nM. Take `O=c1c2cn(Cc3c(F)cccc3F)c3ccccc3c-2nn1-c1ccccc1F` [Example 294]: the EC50 was determined as 824 nM. On to `O=c1c2cn(Cc3ccc(-c4ncco4)cc3)c3ccccc3c-2nn1-c1ccccc1F` [Example 381], for which the EC50 came out at 900 nM. Regarding `O=c1c2cn(Cc3ccc(-n4cccn4)cc3)c3ccccc3c-2nn1C1CCOCC1` [Example 428], the EC50 was 359 nM. On to `O=C1CCc2cccc(-n3nc4c5ccccc5n(Cc5ccc(-n6cccn6)cc5)cc-4c3=O)c21` [Example 587], for which the EC50 came to 4.8 nM.

On to `CNC(=O)c1ccccc1-n1nc2c3ccccc3n(Cc3ccc(-n4cccn4)cc3)cc-2c1=O` [Example 612, N-Methyl-2-(3-oxo-5-{[4-(1H-pyrazol-1-yl)phenyl]methyl}-3,5-dihydro-2H-pyrazolo[4,3-c]quinolin-2-yl)benzamide], for which the EC50 stood at 4870 nM. Take `O=c1c2cn(Cc3ccc(-n4cccn4)cc3)c3ccccc3c-2nn1-c1ccccc1CN1CCCC1` [Example 648, 5-{[4-(1H-Pyrazol-1-yl)phenyl]methyl}-2-[2-(pyrrolodin-1-ylmethyl)phenyl]-2,5-dihydro-3H-pyrazolo[4,3-c]quinolin-3-one]: the EC50 stood at 179 nM. As to `N#Cc1cccc(F)c1-n1nc2c3ccccc3n(Cc3ccc(-n4cccn4)cc3)cc-2c1=O` [Example 667, 3-Fluoro-2-(3-oxo-5-{[4-(1H-pyrazol-1-yl)phenyl]methyl}-3,5-dihydro-2H-pyrazolo[4,3-c]quinolin-2-yl)benzonitrile], the EC50 was 22 nM. As for `CC(=O)N1CCC(n2nc3c4ccccc4n(Cc4ccc(-n5cccn5)cc4)cc-3c2=O)CC1` [Example 675, 2-(1-Acetylpiperidin-4-yl)-5-{[4-(1H-pyrazol-1-yl)phenyl]methyl}-2,5-dihydro-3H-pyrazolo[4,3-c]quinolin-3-one5], the EC50 is 664 nM.
